Measured values from patent US12660819B2, “Herbicidal derivatives” (SYNGENTA CROP PROTECTION AG, priority 2020, dated 2026).

Key:
Format in all cases: in vivo
[1] = test system: Amaranthus retoflexus (AMARE); experiment: Pre-emergence Test (glasshouse, percentage damage to the plant); details: 1000 g/ha unless otherwise stated; for percentage damage to the plant, AMARE: five-point scale; for percentage damage to the plant, AMARE (five-point scale): Amaranthus retoflexus
[2] = test system: Echinochloa crus-galli (ECHCG); experiment: as above; details: 1000 g/ha unless otherwise stated; for percentage damage to the plant, ECHCG: five-point scale; for percentage damage to the plant, ECHCG (five-point scale): Echinochloa crus-galli
[3] = test system: Lolium perenne (LOLPE); experiment: as above; details: 1000 g/ha unless otherwise stated, five-point scale
[4] = test system: Setaria faberi (SETFA); experiment: as above; details: 1000 g/ha unless otherwise stated; for percentage damage to the plant, SETFA: five-point scale; for percentage damage to the plant, SETFA (five-point scale): Setaria faberi
[5] = test system: Ipomoea hederacea (IPOHE); experiment: Post-emergence Test (glasshouse, percentage damage to the plant); details: 1000 g/ha unless otherwise stated, evaluated after 13 days; for Post-emergence Test IPOHE, percentage damage to the plant (five-point scale): post-emergence spray; for IPOHE, percentage damage caused to the plant (five-point scale): post-emergence
Outline: (§1)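 Seeds sown in pots in glasshouse (24/16 °C day/night, 14 h light, 65% humidity), then sprayed with compound at 1000 g/ha unless stated, from acetone/water 50:50 with 0.5% Tween 20. Damage assessed 13 days later on five-point scale (1=0–20% to 5=81–100%).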

[6] = test system: Setaria faberi (SETFA); experiment: as above; details: 1000 g/ha unless otherwise stated, evaluated after 13 days; for Post-emergence Test SETFA, percentage damage to the plant (five-point scale): post-emergence spray; for SETFA, percentage damage caused to the plant (five-point scale): post-emergence
Outline: as §1

[7] = test system: Lolium perenne (LOLPE); experiment: as above; details: post-emergence spray, 1000 g/ha unless otherwise stated, evaluated after 13 days
Outline: (§2)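 Compound formulated in 50:50 acetone/water with 0.5% Tween 20 was diluted to an aqueous spray and applied at 1000 g/ha, unless otherwise stated, onto sown pots. Evaluation after 13 days gave percentage damage, banded into a 1–5 score.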

[8] = test system: Amaranthus retoflexus (AMARE); experiment: as above; details: 1000 g/ha unless otherwise stated, evaluated after 13 days; for Post-emergence Test AMARE, percentage damage to the plant (five-point scale): post-emergence spray; for AMARE, percentage damage caused to the plant (five-point scale): post-emergence
Outline: as §2

[9] = test system: Echinochloa crus-galli (ECHCG); experiment: as above; details: 1000 g/ha unless otherwise stated, evaluated after 13 days; for Post-emergence Test ECHCG, percentage damage to the plant (five-point scale): post-emergence spray; for ECHCG, percentage damage caused to the plant (five-point scale): post-emergence
Outline: as §2

[10] = test system: Ipomoea hederacea (IPOHE); experiment: Pre-emergence Test (glasshouse, percentage damage to the plant); details: 1000 g/ha unless otherwise stated; for percentage damage to the plant, IPOHE: five-point scale; for percentage damage to the plant, IPOHE (five-point scale): Ipomoea hederacea
[11] = test system: Zea mays (ZEAMX); experiment: as above; details: 1000 g/ha unless otherwise stated, Zea mays
[12] = test system: Zea mays (ZEAMX); experiment: Post-emergence Test (glasshouse, percentage damage to the plant); details: post-emergence; 1000 g/ha unless otherwise stated; evaluated after 13 days
Outline: as §1

[13] = test system: Amaranthus palmeri (AMAPA); experiment: as above; details: post-emergence; 1000 g/ha unless otherwise stated; evaluated after 13 days
Outline: as §2

[14] = test system: Amaranthus palmeri (AMAPA); experiment: Pre-emergence Test (glasshouse, percentage damage to the plant); details: 1000 g/ha unless otherwise stated, Amaranthus palmeri

Structure (SMILES)	percentage damage to the plant, AMARE [1]	percentage damage to the plant, ECHCG [2]	percentage damage to the plant, LOLPE [3]	percentage damage to the plant, SETFA [4]	Post-emergence Test IPOHE, percentage damage to the plant (five-point scale) [5]	Post-emergence Test SETFA, percentage damage to the plant (five-point scale) [6]	Post-emergence Test LOLPE, percentage damage to the plant (five-point scale) [7]	Post-emergence Test AMARE, percentage damage to the plant (five-point scale) [8]	Post-emergence Test ECHCG, percentage damage to the plant (five-point scale) [9]	percentage damage to the plant, ZEAMX (five-point scale) [11]	percentage damage to the plant, AMARE (five-point scale) [1]	percentage damage to the plant, ECHCG (five-point scale) [2]	percentage damage to the plant, SETFA (five-point scale) [4]	IPOHE, percentage damage caused to the plant (five-point scale) [5]	ZEAMX, percentage damage caused to the plant (five-point scale) [12]	SETFA, percentage damage caused to the plant (five-point scale) [6]	AMARE, percentage damage caused to the plant (five-point scale) [8]	AMAPA, percentage damage caused to the plant (five-point scale) [13]	ECHCG, percentage damage caused to the plant (five-point scale) [9]	percentage damage to the plant, AMAPA (five-point scale) [14]	also measured
CCn1c(C)c(-c2ccc(Cl)nc2)c(=O)c(C(=O)O)c1-c1ccc(Cl)c(Cl)c1 [Compound 12, 5-(6-chloro-3-pyridyl)-2-(3,4-dichlorophenyl)-1-ethyl-6-methyl-4-oxo-pyridine-3-carboxylic acid]	5 (5=81-100%)	4 (4=61-80%)	1 (1=0-20%)	5 (5=81-100%)	4 (4=61-80%)	5 (5=81-100%)	3 (3=41-60%)	5 (5=81-100%)	4 (4=61-80%)												percentage damage to the plant, IPOHE [10]: 1 (1=0-20%)
CCn1c(C)c(-c2ccc(Cl)cc2)c(=O)c(C(=O)NN(C)C)c1-c1ccc(Cl)c(Cl)c1 [Compound 2, 5-(4-chlorophenyl)-2-(3,4-dichlorophenyl)-1-ethyl-N′,N′,6-trimethyl-4-oxo-pyridine-3-carbohydrazide]	3 (3=41-60%)	1 (1=0-20%)	1 (1=0-20%)	1 (1=0-20%)	2 (2=21-40%)	4 (4=61-80%)	1 (1=0-20%)	3 (3=41-60%)	2 (2=21-40%)												
CCn1c(C)c(-c2cc(OC(C)C)c(Cl)cc2F)c(=O)c(C(=O)O)c1-c1ccc(Cl)c(Cl)c1 [Compound 245, 5-(4-chloro-2-fluoro-5-isopropoxy-phenyl)-2-(3,4-dichlorophenyl)-1-ethyl-6-methyl-4-oxo-pyridine-3-carboxylic acid]										0	5 (5=81-100%)	5 (5=81-100%)	5 (5=81-100%)	4 (4=61-80%)	3 (3=41-60%)	5 (5=81-100%)	5 (5=81-100%)	5 (5=81-100%)	5 (5=81-100%)	5 (5=81-100%)	percentage damage to the plant, IPOHE (five-point scale) [10]: 2 (2=21-40%)
Cc1c(-c2ccc(Cl)cc2F)c(=O)c(C(=O)O)c(-c2ccc(Cl)c(Cl)c2)n1C [Compound 253, 5-(4-chloro-2-fluoro-phenyl)-2-(3,4-dichlorophenyl)-1,6-dimethyl-4-oxo-pyridine-3-carboxylic acid]										1 (1=0-20%)	5 (5=81-100%)	5 (5=81-100%)	5 (5=81-100%)	3 (3=41-60%)	3 (3=41-60%)	5 (5=81-100%)	5 (5=81-100%)	5 (5=81-100%)	5 (5=81-100%)	5 (5=81-100%)	percentage damage to the plant, IPOHE (five-point scale) [10]: 4 (4=61-80%)
CCn1c(C)c(-c2ccc(F)cc2F)c(=O)c(C(=O)O)c1-c1cnc(Cl)c(Cl)c1 [Compound 210, 2-(5,6-dichloro-3-pyridyl)-5-(2,4-difluorophenyl)-1-ethyl-6-methyl-4-oxo-pyridine-3-carboxylic acid]										0	3 (3=41-60%)	1 (1=0-20%)	2 (2=21-40%)	3 (3=41-60%)	3 (3=41-60%)	4 (4=61-80%)	5 (5=81-100%)	4 (4=61-80%)	4 (4=61-80%)	4 (4=61-80%)	percentage damage to the plant, IPOHE (five-point scale) [10]: 0
CCn1c(C)c(-c2ccc(Cl)cc2)c(=O)c(C(=O)O)c1-c1cnc(Cl)c(Cl)c1 [Compound 208, 5-(4-chlorophenyl)-2-(5,6-dichloro-3-pyridyl)-1-ethyl-6-methyl-4-oxo-pyridine-3-carboxylic acid]										0	1 (1=0-20%)	1 (1=0-20%)	2 (2=21-40%)	2 (2=21-40%)	4 (4=61-80%)	5 (5=81-100%)	4 (4=61-80%)	4 (4=61-80%)	3 (3=41-60%)	5 (5=81-100%)	percentage damage to the plant, IPOHE (five-point scale) [10]: 2 (2=21-40%)
CCn1c(C)c(-c2ccc(F)cc2F)c(=O)c(C(=O)O)c1-c1ccc(-c2ccc(F)cc2F)c(Cl)c1 [Compound 4, 2-[3-chloro-4-(2,4-difluorophenyl)phenyl]-5-(2,4-difluorophenyl)-1-ethyl-6-methyl-4-oxo-pyridine-3-carboxylic acid]	1 (1=0-20%)	1 (1=0-20%)	1 (1=0-20%)	1 (1=0-20%)	2 (2=21-40%)	2 (2=21-40%)	1 (1=0-20%)	3 (3=41-60%)	1 (1=0-20%)												percentage damage to the plant, IPOHE [10]: 1 (1=0-20%)
CCn1c(C)c(-c2ccc(F)cc2F)c(=O)c(C(=O)O)c1-c1ccc(Cl)c(Cl)c1 [Compound 3, 2-(3,4-dichlorophenyl)-5-(2,4-difluorophenyl)-1-ethyl-6-methyl-4-oxo-pyridine-3-carboxylic acid]	5 (5=81-100%)	4 (4=61-80%)	3 (3=41-60%)	5 (5=81-100%)	4 (4=61-80%)	5 (5=81-100%)	4 (4=61-80%)	5 (5=81-100%)	5 (5=81-100%)												percentage damage to the plant, IPOHE [10]: 4 (4=61-80%)
